Experimental data taken from article PMC10653080, “Intermolecular Interactions, Solute Descriptors, and Partition Properties of Neutral Per- and Polyfluoroalkyl Substances (PFAS)” (Environmental Science & Technology, 2023).
Values joined by “and” are separate entries in the source; they are usually repeats but may differ in a detail not shown here. Identical values can stand only once. Like-named read-outs stand apart in the source and are kept apart here.

How the values were obtained:
[1] = PP-LFER solute descriptor determination from GC retention and partition coefficient data; type: physicochemical; conditions: for Solute descriptor S (dipolarity/polarizability parameter): final adjusted value, shared within a PFAS group
Excerpt: The GC columns used were, from low to high polarity, HP-5ms Ultra Inert (poly[5% phenyl/95% methyl]siloxane equivalent; Agilent Technologies, Santa Clara, CA), DB-200 (poly[35% trifluoropropyl/65% methyl]siloxane; Agilent Technologies), DB-225ms (poly[50% cyanopropylphenyl/50% methyl]siloxane equivalent; Agilent Technologies), and SolGel-WAX (polyethylene glycol; Trajan, Ringwood, Australia). Column dimensions were all 30 m × 0.25 mm i.d. with a coating thickness of 0.25 μm.
The method for GC retention time measurements follows that of a previous study.[18] Briefly, a 7890A/5975C GC/MS instrument (Agilent Technologies) equipped with an MPS2 autosampler and CIS4 injector (Gerstel, Mülheim an der Ruhr, Germany) was used for all measurements. For each column, isothermal retention times were measured at four temperatures in the range of 30–120 °C to cover all target compounds. The temperature at the injector and transfer line was fixed at 120 °C. The carrier gas was He at a flow rate of 1.2 mL/min. Compounds were introduced into the GC by injecting either headspace (100–250 μL) above the pure compound or solution in acetone (1 μL). Split injections were performed with a split ratio of 20–250. Column dead time (t0) was determined by injecting air and measuring Ar (m/z 40). From the measured retention time (t), the retention factor (k) was calculated as k = (t–t0)/t0. Measurements with t < t0 + 0.1 min were considered too short and discarded. For each column and temperature, k values were obtained for 29–52 PFAS and 29–48 reference compounds.
The standard procedure for solute descriptor determination was as follows. First, the system parameters in eq 1 were calibrated for each column (or partition system) and temperature by MLR using log k (or log K) data and solute descriptors for reference compounds. Dimethylformamide, 1-pentylamine, dimethylsulfoxide, and dodecamethylcyclohexasiloxane (D6) were removed from the log k data sets, because they frequently appeared as outliers (>3 SD) of the PP-LFER model fit. Reference data sets for hexadecane/water partition coefficients (KHxd/w),[21]Kow,[22] and octanol/air partition coefficients (Koa)[23] were taken from the cited references and amended with data for organosilicon compounds.[24],[25] Similar to PFAS, organosilicon compounds have weak van der Waals interaction properties[9] and it may be beneficial to include them in reference data sets. The solute descriptors for PFAS were then back-calculated by using the calibrated PP-LFER equations. Of the five descriptors, V can be calculated from the molecular structure[26] (note: the fragment value for F from Goss et al.[11] was used), and L was available for the PFAS studied.[18] Thus, the left side of eq 2 was known, and MLR was performed to obtain S, A, and B on the right side. [drawing 2] 2 To determine the three descriptors, a minimum of three k and K data are required for a given PFAS compound. The data used here were: k measured for 60 PFAS in this study, KHxd/w for 21 PFAS,[5]Kow for 12 PFAS (see the Results and Discussion section), and Koa for 3 PFAS.[11]
Key to the accurate determination of the polar interaction descriptors is the availability of K data for partition systems with water as a partition phase because water is a strong H-bond donor and acceptor phase and thus the corresponding K values are sensitive to the H-bonding properties of the solute.[27] In particular, at least one solvent/water or air/water partition coefficient is required to determine B because there is no commonly used GC phase that is a significant H-bond donor. In the data set, KHxd/w is sensitive to both A and B and Kow is sensitive to B. However, KHxd/w and Kow data are not available for all PFAS. To increase the number of PFAS for which descriptors can be determined, the following assumptions were made. […]

[2] = Octanol/water partition coefficient (Kow), shared-headspace method; type: physicochemical; conditions: 25 °C; shared-headspace method (SH)
Experimental: Kow was measured for nine PFAS (Table 2) to supplement the data set for descriptor determination. The nine PFAS were selected based on measurement feasibility and structural diversity. The shared-headspace or batch partition method was used as described previously.[5] Details of the methods are given in SI-1.

[3] = 25 °C, updated in the iterative calculation
[4] = difference of descriptor values

| SMILES | Solute descriptor L (logarithmic hexadecane/air partition coefficient, KHxd/air) [1, 3] | Solute descriptor S (dipolarity/polarizability parameter) [1] | Measured Log Kow, Mean ± SD [2] | Solute descriptor L (logarithmic hexadecane/air partition coefficient, KHxd/air) [1] | A value higher than perfluorinated counterpart, perfluorooctane [1, 4] | L value higher than perfluorinated counterpart, perfluorooctane [1, 4] |
| --- | --- | --- | --- | --- | --- | --- |
| OCC(F)(F)C(F)(F)C(F)(F)C(F)(F)C(F)(F)C(F)(F)C(F)(F)F [7:1 FTOH, 1H,1H-Perfluorooctan-1-ol] | 2.715 | 0.30 | 5.01 ± 0.02 |  |  |  |
| OCCCC(F)(F)C(F)(F)C(F)(F)F [3:3 FTOH, 4,4,5,5,6,6,6-Heptafluorohexan-1-ol] | 2.710 | 0.53 | 2.46 ± 0.00 |  |  |  |
| FC(F)(F)C(F)(F)C(F)(F)C(F)(F)C(F)(F)C(F)(F)CI [6:1 FTI, 1H,1H-Perfluoroheptyl iodide] | 3.382 and 3.38 | 0.27 and 0.27 ± 0.02 | 5.57 ± 0.01 |  |  |  |
| CC(O)C(F)(F)C(F)(F)C(F)(F)C(F)(F)C(F)(F)F (stereo not drawn) [5:2s FTOH, 1H,1H,1H,2H-Perfluoroheptan-2-ol] | 2.296 | 0.39 and 0.39 ± 0.02 | 3.80 ± 0.03 |  |  |  |
| OCCCCC(F)(F)C(F)(F)C(F)(F)C(F)(F)F [4:4 FTOH, 5,5,6,6,7,7,8,8,8-Nonafluorooctan-1-ol] | 3.499 | 0.52 | 3.54 ± 0.00 |  |  |  |
| CC(=O)OCCC(F)(F)C(F)(F)C(F)(F)C(F)(F)C(F)(F)C(F)(F)C(F)(F)C(F)(F)F [8:2 FTAce, 1H,1H,2H,2H-Perfluorodecyl acetate] |  | 0.54 |  | 4.234 |  |  |
| FC(OC(F)(F)C(F)(OC(F)(F)C(F)(OC(F)(F)C(F)(OC(F)(F)C(F)(OC(F)(F)C(F)(F)C(F)(F)F)C(F)(F)F)C(F)(F)F)C(F)(F)F)C(F)(F)F)C(F)(F)F (stereo not drawn) [FE-E5, 1,1,1,2,4,4,5,7,7,8,10,10,11,13,13,14,16,16,17 ,17,18,18,18-Tricosafluoro-5,8,11,14-tetrakis(trifluoromethyl)-3,6,9,12,15-pentaoxaoctadecane] |  | -0.81 |  | 3.128 |  |  |
| FC(F)(F)C(F)(F)C(F)(F)C(F)(F)C(F)(F)C(F)(F)I [PFHxI, Perfluorohexyl iodide] | 2.508 | 0.07 |  |  |  |  |
| C=CC(=O)OCCC(F)(F)C(F)(F)C(F)(F)C(F)(F)C(F)(F)C(F)(F)C(F)(F)C(F)(F)F [8:2 FTAC, 1H,1H,2H,2H-Perfluorodecyl acrylate] | 4.661 | 0.54 |  |  |  |  |
| C=CC(F)(F)C(F)(F)C(F)(F)C(F)(F)C(F)(F)C(F)(F)C(F)(F)C(F)(F)F [8:2 FTO, 1H,1H,2H-Perfluoro-1-decene] | 2.504 | 0.11 |  |  |  |  |
| OCC(F)(F)C(F)(F)C(F)(F)F [3:1 FTOH, 1H,1H-Perfluorobutan-1-ol] | 1.542 | 0.30 |  |  |  |  |
| FC(F)(F)C(F)(F)C(F)(F)C(F)(F)N(C(F)(F)C(F)(F)C(F)(F)C(F)(F)F)C(F)(F)C(F)(F)C(F)(F)C(F)(F)F [PFTBA, Perfluorotributyl amine] | 2.302 | -0.23 |  |  |  |  |
| OCCC(F)(F)C(F)(F)C(F)(F)C(F)(F)C(F)(F)C(F)(F)C(F)(F)C(F)(F)C(F)(F)C(F)(F)C(F)(F)C(F)(F)F [12:2 FTOH, 1H,1H,2H,2H-Perfluorotetradecan-1-ol] |  | 0.35 |  | 4.682 |  |  |
| NS(=O)(=O)C(F)(F)C(F)(F)C(F)(F)C(F)(F)C(F)(F)C(F)(F)C(F)(F)C(F)(F)F [PFOSA, Perfluorooctanesulfonamide] |  | 0.96 |  | 4.744 |  |  |
| C=C(C)C(=O)OCCC(F)(F)C(F)(F)C(F)(F)C(F)(F)F [4:2 FTMAC, 1H,1H,2H,2H-Perfluorohexyl methacrylate] | 3.990 | 0.53 |  |  |  |  |
| FC(F)(F)C(F)(F)C(F)(F)C(F)(F)C(F)(F)C(F)(F)C(F)(F)C(F)(F)C(F)(F)C(F)(F)I [PFDI, Perfluorodecyl iodide] |  | 0.07 |  | 3.623 |  |  |
| NS(=O)(=O)C(F)(F)C(F)(F)C(F)(F)C(F)(F)C(F)(F)C(F)(F)F [PFHxSA, Perfluorohexanesulfonamide] | 4.189 | 0.96 |  |  |  |  |
| C=CC(=O)OCCC(F)(F)C(F)(F)C(F)(F)C(F)(F)C(F)(F)C(F)(F)C(F)(F)C(F)(F)C(F)(F)C(F)(F)F [10:2 FTAC, 1H,1H,2H,2H-Perfluorododecyl acrylate] |  | 0.54 |  | 5.221 |  |  |
| FC(F)(F)C(F)(F)C(F)(F)C(F)(F)C(F)(F)C(F)(F)C(F)(F)C(F)(F)C(F)(F)F [PFN, Perfluorononane] | 1.571 | -0.19 |  |  |  |  |
| C=CCOCC(F)(F)C(F)(F)C(F)(F)C(F)(F)C(F)(F)C(F)(F)C(F)(F)F [AFOE, Allyl 1H,1H-perfluorooctyl ether] | 3.584 | 0.30 |  |  |  |  |
| C=C(C)C(=O)OCCC(F)(F)C(F)(F)C(F)(F)C(F)(F)C(F)(F)C(F)(F)C(F)(F)C(F)(F)F [8:2 FTMAC, 1H,1H,2H,2H-Perfluorodecyl methacrylate] |  | 0.53 |  | 5.115 |  |  |
| C=C(C)C(=O)OCCC(F)(F)C(F)(F)C(F)(F)C(F)(F)C(F)(F)C(F)(F)C(F)(F)C(F)(F)C(F)(F)C(F)(F)F [10:2 FTMAC, 1H,1H,2H,2H-Perfluorododecyl methacrylate] |  | 0.53 |  | 5.671 |  |  |
| FC(F)C(F)(F)C(F)(F)C(F)(F)C(F)(F)C(F)(F)C(F)(F)C(F)F [1,8-DHPFO, 1H,8H-Perfluorooctane] | 2.130 | 0.38 |  |  | 0.24 | 0.78 |
| OCCC(F)(F)C(F)(F)C(F)(F)C(F)(F)C(F)(F)C(F)(F)C(F)(F)C(F)(F)C(F)(F)C(F)(F)F [10:2 FTOH, 1H,1H,2H,2H-Perfluorododecan-1-ol] |  | 0.35 |  | 4.117 |  |  |
| CCNS(=O)(=O)C(F)(F)C(F)(F)C(F)(F)C(F)(F)C(F)(F)C(F)(F)F [EtFHxSA, N-Ethylperfluorohexanesulfonamide] | 4.400 | 0.88 |  |  |  |  |
